According to ChEMBL document CHEMBL5518183, “Broad-spectrum antiviral strategy: Host-targeting antivirals against emerging and re-emerging viruses” (Eur J Med Chem, 2024):
≈ marks a conversion by molar mass, not a printed value.

Tests used:
[1] = system: Human immunodeficiency virus 1; test: Antiviral activity against HIV1 infected in H9 cells assessed as reduction in viral replication; assay type: functional, organism-based; settings: Human immunodeficiency virus 1, H9
SARS-CoV-2 [2] = test: Antiviral activity against SARS-CoV-2 infected in African green monkey Vero E6 cells assessed as reduction in viral replication incubated for 24 hrs by Immunofluorescence assay; assay type: functional, organism-based; settings: Severe acute respiratory syndrome coronavirus 2, Vero C1008, 24 h
Influenza B virus = test: Antiviral activity against Influenza B virus assessed as inhibition of virus-induced cytopathic effect; assay type: functional, organism-based
Influenza A virus = test: Antiviral activity against influenza A virus H1N1 infected in MDCK cells assessed as reduction in virus induced cytopathic effect by CPE assay; assay type: functional, organism-based
dengue virus type 2 = test: Antiviral activity against DENV-2 infected in human Huh-7 cells at MOI of 0.05 assessed as log reduction of intracellular viral titre measured after 60 hrs post infection by RT-PCR analysis; assay type: functional, organism-based; settings: Huh-7, 60 h
[3] = system: Human immunodeficiency virus 1; test: Antiviral activity against HIV1 TC-1 infected in human PBMC assessed as inhibition of viral replication; assay type: functional, organism-based; settings: Human immunodeficiency virus 1, TC-1, PBMC
Hepatitis C virus [4] = test: Antiviral activity against HCV infected in human Huh-7 cells assessed as reduction in viral infection incubated for 72 hrs by qRT-PCR analysis; assay type: functional, organism-based, Hepacivirus hominis; settings: Huh-7, 72 h
West Nile virus [5] = test: Antiviral activity against West Nile virus infected in human A549 cells assessed as reduction in virus replication incubated for 72 hrs by MTS assay; assay type: functional, organism-based; settings: A549, 72 h
Dengue virus = test: Antiviral activity against Dengue virus assessed as inhibition of viral replication; assay type: functional, organism-based
West Nile virus [6] = test: Antiviral activity against West Nile virus infected in African green monkey Vero 76 cells assessed as reduction in cytopathic effect; assay type: functional
[7] = Cytotoxicity against African green monkey Vero cells assessed as reduction in cell growth incubated for 72 hrs by MTT assay; assay type: toxicity, cell-based; settings: chlorocebus sabaeus
[8] = system: Vesicular stomatitis virus; test: Antiviral activity against Vesicular stomatitis virus infected in human A549 cells assessed as reduction in virus replication; assay type: functional
Yellow fever virus = test: Antiviral activity against Yellow fever virus African green monkey Vero cells assessed as reduction in cytopathic effect; assay type: functional
[9] = system: Western equine encephalitis virus; test: Antiviral activity against Western equine encephalomyelitis virus infected in African green monkey Vero cells assessed as reduction in cytopathic effect; assay type: functional
Hepatitis B virus = test: Antiviral activity against HBV genotype A infected in human HepG2 cells assessed as inhibition of viral replication; assay type: functional, organism-based
Chikungunya virus = test: Antiviral activity against CHIKV infected in Vero 76 cells assessed as reduction in cytopathic effect; assay type: functional, organism-based
SARS-CoV-2 [10] = test: Antiviral activity against SARS-CoV-2 […] B.1.351 Beta infected in human Calu-3 cells assessed as reduction of viral growth measured after 48 hrs by luciferase assay; assay type: functional, organism-based; settings: Severe acute respiratory syndrome coronavirus 2
SARS-CoV-2 [11] = test: Antiviral activity against SARS-CoV-2 B.1.1.7 infected in human Calu-3 cells assessed as inhibition of viral infection measured after 48 hrs by Hoechst 33342 staining based analysis; assay type: functional, organism-based; settings: Severe acute respiratory syndrome coronavirus 2, B.1.1.7, Calu-3, 48 h
[12] = system: Respiratory syncytial virus; test: Antiviral activity against RSV infected in human HepG2 cells assessed as inhibition of virus induced cytopathic effect measured for 60 mins by MTT assay; assay type: functional, organism-based; settings: HepG2, 1 h
Hepatitis C virus [13] = test: Antiviral activity against Hepatitis C virus infected in Huh7.5 cells assessed as reduction in viral growth; assay type: functional, organism-based, Hepacivirus hominis
[14] = system: Human immunodeficiency virus 1; test: Antiviral activity against HIV-1 3B infected in human MT4 cells assessed as reduction in virus induced cytopathic effect incubated for 5 days by Cell Titer Glo luminescent assay; assay type: functional, organism-based; settings: Human immunodeficiency virus 1, 3B, MT4, 120 h
[15] = system: Respiratory syncytial virus; test: Antiviral activity against RSV A2 infected in human HepG2 cells assessed as inhibition of virus induced cytopathic effect measured after 72 hrs by MTT assay; assay type: functional, organism-based; settings: HepG2, 72 h
Hepatitis C virus [16] = test: Antiviral activity against HCV infected in human Huh-7 cells assessed as reduction in viral infection; assay type: functional, organism-based, Hepacivirus hominis
Ebolavirus = test: Antiviral activity against Ebola virus infected in African green monkey Vero cells incubated for 3 days by immunofocus assay; assay type: functional, organism-based; settings: Orthoebolavirus, 72 h
[17] = Cytotoxicity against African green monkey Vero cells assessed as reduction in cell viability measured after 72 hrs by MTT assay; assay type: toxicity, cell-based; settings: chlorocebus sabaeus
H9 = test: Antitumor activity against human H9 cells assessed as cell growth inhibition; assay type: functional, cell-based

Q: With `COc1ccccc1NC(=O)c1ccccc1Sc1ccc([N+](=O)[O-])cc1` as the molecule, how does the EC50 [1] read?
A: 6 µM

Q: For `CONC(=O)[C@H]1[C@@H](O)[C@@]2(O)c3c(OC)cc(OC)cc3O[C@@]2(c2ccc(OC)cc2)[C@@H]1c1ccccc1`, which EC50 (SARS-CoV-2 [2]) is on record?
A: 0.00182 µM

Q: What does the source list for `O=C(Nc1cccnc1)c1cccs1`?
A: EC50 (Influenza B virus): 2.3 µM; EC50 (Influenza A virus): 2.3 µM

Q: For `CN(/N=C/c1ccccc1C(=O)O)c1nc(-c2ccccc2Cl)cs1`, which EC50 (dengue virus type 2) is on record?
A: 0.017 µM

Q: With `CCCCc1cn(-c2ccc(NC(=O)Nc3ccccc3C)cc2)nn1` as the molecule, how does the EC50 [3] read?
A: 0.97 µM

Q: What about the EC50 (Hepatitis C virus [4]) of the same molecule?
A: 0.97 µM

Q: And the EC50 (West Nile virus [5])?
A: 0.97 µM

Q: And the EC50 (Dengue virus)?
A: 0.97 µM

Q: What does the source list for `COC(=O)c1c(-c2c(Cl)cccc2Cl)noc1-c1cnn(-c2cccc(Cl)c2)c1C(F)(F)F`?
A: EC90 (West Nile virus [6]): 0.00031 µM; CC50 at 72 h [7]: 5 µM; EC90 [8]: 0.0387 µM; EC90 (Yellow fever virus): 0.0128 µM; EC90 [9]: 0.0338 µM

Q: For `CC[C@@H]1NC(=O)[C@H]([C@@H]2O[C@@H](Sc3cccc(OCc4ccccc4)c3)C[C@H]2C)N(C)C(=O)[C@H](C(C)C)N(C)C(=O)[C@H](CC(C)C)N(C)C(=O)[C@H](CC(C)C)N(C)C(=O)[C@@H](C)NC(=O)[C@H](C)NC(=O)[C@H](CC(C)C)N(C)C(=O)[C@H](C(C)C)NC(=O)[C@H](CC(C)C)N(C)C(=O)CN(C)C1=O`, which IC50 (Hepatitis B virus) is on record?
A: 0.11 µM

Q: For `COc1cc2c(cc1C(=O)Nc1ccc(C(C)(C)C#N)cc1)CCCCC2`, which EC50 (Chikungunya virus) is on record?
A: 0.27 µM

Q: Which IC50 (SARS-CoV-2 [10]) does the source give for `CS(=O)(=O)N[C@@H](CCC(N)=O)C(=O)N[C@@H](Cc1ccccc1)C(=O)N[C@@H](CCCNC(=N)N)C(=O)c1nc2ccccc2s1` here?
A: 0.0019 µM

Q: What about the IC50 (SARS-CoV-2 [11]) of the same molecule?
A: 0.0019 µM

Q: What does the source list for `COCCNC(=O)[C@@H]1C[C@@H](Sc2nc3ccccc3[nH]2)CN1Cc1ccc2c(c1)Cc1ccccc1-2`?
A: EC50 [12]: 0.002 µM; EC50 (Hepatitis C virus [13]): 0.002 µM; EC50 [14]: 0.002 µM; EC50 [15]: 0.002 µM

Q: For `C/C=C/C[C@@H](C)[C@@H](O)[C@H]1C(=O)N[C@@H](CC)C(=O)N(C)C(C)C(=O)N(CC)[C@@H](CC(C)C)C(=O)N[C@@H](C(C)C)C(=O)N(C)[C@@H](CC(C)C)C(=O)N[C@@H](C)C(=O)N[C@H](C)C(=O)N(C)[C@@H](CC(C)C)C(=O)N(C)[C@@H](CC(C)C)C(=O)N(C)[C@@H](C(C)C)C(=O)N1C` (some centres not stated), which EC50 (Hepatitis C virus [16]) is on record?
A: 0.27 µg/mL (≈ 0.219 µM)

Q: With `CCCCCN(CC)c1ccc(Oc2ccc(-c3c(C)c(=O)c4c(F)cccc4n3C)cc2F)cc1` as the molecule, how does the IC50 (Ebolavirus) read?
A: 0.007 µM

Q: What about the CC50 at 72 h [17] of the same molecule?
A: 10.7 µM

Q: Which EC50 [1] does the source give for `CCN(CC)S(=O)(=O)c1ccc(OC)c(NC(=O)Cc2ccccc2[N+](=O)[O-])c1` here?
A: 25 µM

Q: And the IC50 (H9)?
A: > 100 µM
